Results reported in patent publication US20110130357A1 (priority 2008, published 2011).
In brackets after ≈: the same amount, converted by molar mass.

Experiments:
F. graminearum [1] = type: cell-based, Fusarium graminearum; conditions: for lethality to F. graminearum: in the range of 500 to 1 μg/mL
F. graminearum [2] = type: cell-based, Fusarium graminearum; conditions: PDB+casamino acids containing 0.02, 0.08 or 0.2% (v/v) surfactant
[3] = tested on: F. graminearum isolate B-4-5A; type: in vivo, Fusarium graminearum on wheat (Alsen and Frontana cultivars); conditions: 30 μg/mL aminoglycoside mixed in inoculum, wheat leaves
screened fungi = assay: MIC against screened fungi (all species); type: cell-based
[4] = tested on: Escherichia coli TG1 (pET28a); type: cell-based; conditions: 35° C., 12-18 hrs
[5] = tested on: Staphylococcus aureus ATCC 25923; type: cell-based; conditions: 35° C., 12-18 hrs
[6] = tested on: Pseudomonas aeruginosa (ATCC 27853); type: cell-based; conditions: 35° C., 12-18 hrs
[7] = tested on: Enterococcus faecalis (ATCC29212); type: cell-based; conditions: 35° C., 12-18 hrs
[8] = tested on: Klebsiella pneumoniae (ATCC 138883); type: cell-based; conditions: 35° C., 12-18 hrs
wheat seedlings = conditions: in vivo
Ulocladium sp. = assay: MIC against screened fungi
Fusarium oxysporium = assay: MIC against screened fungi
[9] = tested on: selected bacterial pathogens; assay: Antibacterial MIC over the selected bacterial pathogens; type: cell-based; conditions: read-out: Corresponding MIC values (span over the tested bacteria)
Procedure: The minimum inhibitory concentration of M038 was determined for selected bacterial pathogens. For purposes of the experiments discussed in this paragraph, the minimum inhibitory concentration (MIC) is defined as the minimum concentration of compound needed to inhibit the growth of bacteria. A solution of selected bacteria was inoculated Trypticase Soy broth at 35° C. and incubated for 1-2 hours. Following incubation, the bacterial concentrations were determined, and diluted with broth, if necessary, to an absorption value of 0.08 to 0.1 at 625 nm. The adjusted inoculated medium (100 μL) was diluted with 10 ml broth, and then applied to a 96-well microtiter plate (50 μL). A series of solutions (50 μL each in 2-fold dilution) of M038 was added to the testing wells. The 96-well plate was incubated at 35° C. for 12-18 hrs. The MIC results were repeated at least three times.

SMILES | effect of surfactant on in vitro activity (MIC) (F. graminearum [2]) | lesion development / leaf infection by F. graminearum [3] | phytotoxicity (wheat seedlings) | phytotoxicity (relative chlorophyll content) (wheat seedlings) | lethality to F. graminearum (F. graminearum [1]) | other results
CCCCCCCCO[C@H]1[C@H](O)[C@@H](O)[C@@H](O[C@@H]2[C@@H](O)[C@H](O[C@H]3O[C@H](CN)[C@@H](O)[C@H](O)[C@H]3N)[C@@H](N)C[C@H]2N)O[C@@H]1C [JL038, 6-O-(6-Deoxy-4-O-n-octyl-α-D-glucopyranosyl)neamine] | did not affect | prevents lesion development | no phytotoxicity | phytotoxic |  | MIC (MIC90, concentration required to inhibit 90% of the growth or more) (F. graminearum [1]; PDB+casamino acids, 24° C., 72 h, tested range 500 to 1 μg/mL): 31.3 µg/mL; MICs for all species of screened fungi (screened fungi; all screened fungi): ≤ 31.3 µg/mL; Minimal inhibitory concentration (MIC) [4]: 125-250 μ/mL; Minimal inhibitory concentration (MIC) [5]: 250 μ/mL; Minimal inhibitory concentration (MIC) [6]: 250 µg/mL (≈ 431 µM); Minimal inhibitory concentration (MIC) [7]: 125-250 μ/mL; Minimal inhibitory concentration (MIC) [8]: 250 μ/mL; chlorophyll damage (relative chlorophyll content) (wheat seedlings): no chlorophyll damages; phytotoxicity (chlorosis in the absence of fungal growth) (wheat seedlings): showed phytotoxicity; MIC (Ulocladium sp.): 7.8 µg/mL (≈ 13.4 µM); MIC (Fusarium oxysporium): 7.8 µg/mL (≈ 13.4 µM)
NCC1O[C@H](OC2C(N)CC(N)[C@@H](OC3OCC(O)[C@@H](O)[C@H]3O)[C@H]2O)C(N)[C@@H](O)[C@@H]1O (stereo partly drawn) [JL39] |  |  |  |  | not lethal | 
NCC1O[C@H](OC2C(N)CC(N)[C@@H](OC3OCC(O)[C@@H](N)[C@H]3O)[C@H]2O)C(N)[C@@H](O)[C@@H]1O (stereo partly drawn) [JL40, reference compound] | did not affect | did not prevent leaf infection | phytotoxic | phytotoxic |  | 
NCC1O[C@H](OC2C(N)CC(N)[C@@H](OC3O[C@H](CO)C(O)[C@@H](N)[C@H]3O)[C@H]2O)C(O)[C@@H](O)[C@@H]1O (stereo partly drawn) [kanamycin A, Kanamycin A] |  |  |  |  | not lethal | 
NC[C@H]1O[C@H](O[C@H]2[C@H](O)[C@@H](O[C@H]3O[C@H](CO)[C@@H](O)[C@H](N)[C@H]3O)[C@H](N)C[C@@H]2N)[C@H](N)[C@@H](O)[C@@H]1O [kanamycin B, Kanamycin B, reference compound] | did not affect | did not prevent leaf infection | phytotoxic | phytotoxic |  | antifungal effectiveness against screened fungi (screened fungi; screened fungi of Table 2): substantially ineffective; MIC [9]: 980 to 1950 µg/mL (≈ 2030 to 4030 µM)
